“And” between values parts separate entries of the source, which are not always exact repeats. Equal values may be shown once. Read-outs that look alike come from different tables or passages of the source. One block for each compound: values may come before it.
What was measured:
cathepsins [1] = assay: Off-target labeling of cathepsins in intact RAW 264.7 macrophages; assay type: cell-based; conditions: for labeling of cathepsins: high concentrations; for cross reactivity towards lysosomal cathepsins: intact RAW 264.7 macrophages
Protocol: Immunoprecipitation of cathepsins in intact raw 264.7 cells. […] High concentration of LP-1 was used to bring out all the off-target labeling in intact cells.
RAW 264.7 macrophages (600,000 cells/well) were seeded in a 6 well plate 24 hrs prior to labeling. […] High concentration of LP-1 was used to bring out all the off-target labeling in intact cells. Cells were washed with PBS buffer and lysed by addition of citrate-phosphate lysis buffer (50 mM citrate-phosphate, 1% CHAPS, 0.5% Triton, 5 mM DTT, pH 4.5). 20 μL of crude lysates were diluted to […] in RIPA buffer (phosphate-buffered saline, 0.5% NP-40, 1 mM EDTA, pH 7.4). Anti-mouse cathepsin B (E Weber Halle), anti-mouse cathepsin L (R&D Systems), anti-goat cathepsin S (Abchem) and anti-human cathepsin S (R&D Systems) were added and mixed for 15 mM at 0° C. 40 μL of Protein A/G Plus Agarose beads (Santa Cruz Biotechnology) were added and mixed overnight at 4° C. Samples were spun down and supernatant and beads were separated. Beads were washed with RIPA buffer and boiled after addition of sample buffer 2× (20% glycerol, 100 mM Tris HCl, pH 6.8, 6% SDS, and 10% b-mercaptoethanol). Acetone was added to the supernatant and kept at −80° C. for 2 h. Precipitated proteins were collected by centrifugation in the cold for 30 min, dried, and dissolved by boiling in sample buffer. Samples without immunoprecipitation (input), pellets (P) and supernatant (S) were separated on a 12.5% SDS-PAGE and visualized by scanning of the gel with a Typhoon flatbed laser scanner (excitation/emission 633/680 nm).
We treated intact NIH-3T3 and RAW 264.7 cells with LP-1 and LP-O respectively and monitored protein labeling using SDS-PAGE followed by scanning of the gel to detect the Cy5 fluorescence (FIG. 2). […] The identity of these off targets as cathepsins was confirmed by pre-treatment of cells with the broad-spectrum cathepsin inhibitor JPM-OEt (21) and further verified by immunoprecipitation (FIG. 16). Although some degree of cross reactivity of AOMK probes towards cathepsins has been reported (15), attempts to inhibit cathepsins with various aza-epoxide inhibitors have been unsuccessful (22). Therefore, the labeling of cathepsins by LP-I was particularly surprising. […] Furthermore, when cells were pre-treated with legumain inhibitors we observed more intense cathepsin labeling. […]
RAW 264.7 cells (250,000 cells/well) and NIH-3T3 cells (200,000 cells/well) were seeded in a 24 well plate 24-30 hrs prior to labeling. […] Labeled proteins were analyzed by scanning the gel with a Typhoon flatbed laser scanner (ex. 633 nM/em. 680 nM). […] The labeled samples were separated by 12.5% SDS-PAGE and analyzed by scanning the gel with a Typhoon flatbed scanner.

[2] = test system: caspase 3, cathepsin B or cathepsin L; assay: Selectivity: inhibition of enzymes other than legumain; assay type: biochemical; conditions: for inhibitory effect against other enzymes: even at millimolar concentrations
Protocol: Disclosed below are activity based probes, i.e., they only label active enzyme. The probes are specific for legumain, and may be used to inhibit or inhibit and label active enzyme in situ. […] It may be said, for example, the activity towards legumain will be on the order of at least 3 times greater for legumain than caspase 3, cathepsin B or cathepsin L, preferably at least 10 times greater, and even 100 times greater.
(§1) Assay buffers consist of 20 mM citric acid, 60 mM disodium hydrogen orthophosphate, 1 mM EDTA, 0.1% CHAPS, 4 mM DTT, pH 5.8 for legumain, 50 mM dihydrogen sodium orthophosphate, 1 mM EDTA, 5 mM DTT, pH 6.25 for cathepsin B and cathepsin Land 100 mM Tris, 0.1% CHAPS, 10% sucrose, 10 mM DTT, pH 7.4 for caspase-3.

legumain [3] = biological target: T1, legumain (Mus musculus (Mouse), UniProt O89017); assay: Labeling of active legumain in intact NIH-3T3 fibroblasts (SDS-PAGE, Cy5 scan); assay type: cell-based
Source text: We treated intact NIH-3T3 and RAW 264.7 cells with LP-1 and LP-O respectively and monitored protein labeling using SDS-PAGE followed by scanning of the gel to detect the Cy5 fluorescence (FIG. 2). […] The identity of these off targets as cathepsins was confirmed by pre-treatment of cells with the broad-spectrum cathepsin inhibitor JPM-OEt (21) and further verified by immunoprecipitation (FIG. 16). Although some degree of cross reactivity of AOMK probes towards cathepsins has been reported (15), attempts to inhibit cathepsins with various aza-epoxide inhibitors have been unsuccessful (22). Therefore, the labeling of cathepsins by LP-I was particularly surprising. […] Furthermore, when cells were pre-treated with legumain inhibitors we observed more intense cathepsin labeling. This could be explained by the fact that cathepsins are known to be substrates for legumain (3, 23), thus legumain inhibition could result in increased levels of cathepsins and therefore increased non-specific labeling by the legumain probes.
(§2) RAW 264.7 cells (250,000 cells/well) and NIH-3T3 cells (200,000 cells/well) were seeded in a 24 well plate 24-30 hrs prior to labeling. Cells were pre-treated with appropriate inhibitors for 1.5 hrs and labeled by addition of each probe for 1 hrs; the final DMSO concentration was maintained less than 0.2%. Cells were washed with PBS buffer and lysed by addition of sample buffer. Crude lysates were collected and separated by 12.5% SDS-PAGE. Labeled proteins were analyzed by scanning the gel with a Typhoon flatbed laser scanner (ex. 633 nM/em. 680 nM). For lysates labeling, cytosolic lysates of RAW 264.7 cells were prepared as previously described (29). Lysates were diluted to 1 mg/ml in 50 mM citrate phosphate buffer (pH 4.5), 0.1% CHAPS, 5 mM DTT and subjected to direct labeling. 25˜L of lysates samples were pre-treated with inhibitors for 30 min and labeled with probes for another 30 min. The labeled samples were separated by 12.5% SDS-PAGE and analyzed by scanning the gel with a Typhoon flatbed scanner.
Target sequence in this assay (O89017 18-325): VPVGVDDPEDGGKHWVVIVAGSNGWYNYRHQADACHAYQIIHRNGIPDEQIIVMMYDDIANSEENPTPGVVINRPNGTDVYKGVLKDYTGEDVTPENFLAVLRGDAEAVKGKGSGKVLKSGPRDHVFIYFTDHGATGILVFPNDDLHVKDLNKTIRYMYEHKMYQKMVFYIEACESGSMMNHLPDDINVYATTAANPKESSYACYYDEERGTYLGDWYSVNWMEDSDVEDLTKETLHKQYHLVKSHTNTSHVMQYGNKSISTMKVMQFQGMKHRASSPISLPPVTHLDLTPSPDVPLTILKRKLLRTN

caspase-3 = caspase-3 (Homo sapiens (Human), UniProt P42574); assay: Inhibition of caspase-3, Caspase-3 Substrate VII; conditions: read-out: Caspase-3 IC50; at 30 min
Sequence of caspase-3 (P42574 29-175, species assumed): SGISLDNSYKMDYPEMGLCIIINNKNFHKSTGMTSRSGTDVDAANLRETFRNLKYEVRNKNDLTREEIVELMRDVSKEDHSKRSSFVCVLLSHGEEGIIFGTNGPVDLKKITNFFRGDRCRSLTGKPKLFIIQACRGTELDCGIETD
Sequence of caspase-3 (P42574 176-277, species assumed): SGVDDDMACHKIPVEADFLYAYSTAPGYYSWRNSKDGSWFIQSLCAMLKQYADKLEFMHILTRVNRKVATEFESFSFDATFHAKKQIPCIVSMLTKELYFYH
Protocol: (§4) Determination of IC50 against cysteine proteases and second order rate constants (kobs1[I]) for legumain Activity of legumain was measured with the fluorogenic substrate, Cbz-Ala-Ala-Asn-AMC (Anaspec), cathepsin B and cathepsin L was measured with Cbz-Phe-Arg-AMC (Bachem), and caspase-3 was measured with Caspase-3 Substrate VII (Calbiochem). […] The increase in fluorescence was continuously monitored every 30 see for 2.5 hrs with a Spectramax M5 fluorescent plate reader (Molecular Devices), and inhibition curves were recorded. […] ICso values with known broad-spectrum cathepsin inhibitor (JPM-OEt) and caspase-3 inhibitor (Z-DEVD-FMK) were also measured for comparison. All measurements were performed in triplicate and the average values were reported.

cathepsin L = cathepsin L (Homo sapiens (Human), UniProt P07711); assay: Inhibition of cathepsin L, fluorogenic substrate Cbz-Phe-Arg-AMC
Sequence of cathepsin L (P07711 114-333, species assumed): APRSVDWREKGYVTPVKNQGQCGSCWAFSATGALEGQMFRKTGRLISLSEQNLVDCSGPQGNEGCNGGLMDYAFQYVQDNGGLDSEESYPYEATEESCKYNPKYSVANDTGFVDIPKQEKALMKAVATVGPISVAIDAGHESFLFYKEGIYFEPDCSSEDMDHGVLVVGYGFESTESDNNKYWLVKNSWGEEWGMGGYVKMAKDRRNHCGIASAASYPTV
Protocol: as §4

cathepsin B = cathepsin B (Homo sapiens (Human), UniProt P07858); assay: Inhibition of cathepsin B, fluorogenic substrate Cbz-Phe-Arg-AMC
Protocol: as §4

recombinant legumain = recombinant legumain (Homo sapiens (Human), UniProt Q99538); assay: Inhibition of recombinant legumain, fluorogenic substrate Cbz-Ala-Ala-Asn-AMC; assay type: biochemical; conditions: for IC50: at 60 min
Sequence of recombinant legumain (Q99538 18-433, species assumed): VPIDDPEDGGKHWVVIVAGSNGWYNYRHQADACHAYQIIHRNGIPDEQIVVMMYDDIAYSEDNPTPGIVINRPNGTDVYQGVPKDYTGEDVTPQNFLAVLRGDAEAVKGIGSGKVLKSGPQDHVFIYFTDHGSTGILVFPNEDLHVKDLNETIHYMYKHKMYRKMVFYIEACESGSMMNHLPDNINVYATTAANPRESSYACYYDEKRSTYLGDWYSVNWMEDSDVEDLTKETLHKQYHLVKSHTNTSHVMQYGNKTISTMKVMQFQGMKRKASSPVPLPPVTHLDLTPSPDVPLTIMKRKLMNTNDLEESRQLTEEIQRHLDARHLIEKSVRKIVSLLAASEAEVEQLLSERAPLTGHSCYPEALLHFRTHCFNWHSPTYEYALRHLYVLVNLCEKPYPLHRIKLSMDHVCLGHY
Protocol: as §1
Second-order inhibition rate constants were determined by following the previously described method in the literature (6). The pseudo-first-order rate constants (kobs) were obtained from plots of In vJ Vo versus time where Vo is the rate of hydrolysis of fluorogenic substrate and Vt is the rate of hydrolysis of substrate in the presence of the inhibitor. The second-order inhibition rate constants were calculated using the following equation. Second order rate constant=(kobs1[I])(1+[S]/Km)

legumain [4] = biological target: T1, legumain; assay: Direct labeling of legumain in RAW cell lysates; assay type: biochemical
Protocol: as §2
Target sequence in this assay (O89017 18-435): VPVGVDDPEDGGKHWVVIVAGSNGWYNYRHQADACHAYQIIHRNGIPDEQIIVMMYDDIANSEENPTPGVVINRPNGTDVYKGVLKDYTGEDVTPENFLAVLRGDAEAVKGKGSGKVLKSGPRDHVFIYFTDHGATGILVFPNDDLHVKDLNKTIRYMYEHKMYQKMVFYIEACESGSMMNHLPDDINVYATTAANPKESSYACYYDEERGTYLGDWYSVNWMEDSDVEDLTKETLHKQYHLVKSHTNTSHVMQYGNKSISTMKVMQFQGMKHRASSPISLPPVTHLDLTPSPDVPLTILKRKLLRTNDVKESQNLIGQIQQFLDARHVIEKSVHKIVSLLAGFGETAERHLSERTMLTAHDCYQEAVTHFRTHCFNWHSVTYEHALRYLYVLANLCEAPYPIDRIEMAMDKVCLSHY
We believe that this cross-reactivity results from increased lysosomal uptake and is not the result of a loss of specificity as the result of addition of the tat peptide. […] We also performed a competition assay by pre-treating RAW lysates with each probe and labeling with the general cathepsin probe, I^125_DCG04 (25).

legumain [5] = biological target: T1, legumain; assay: In vivo fluorescence imaging of mice bearing C2C12/ras xenograft tumors; conditions: IV tail vein, 25 nmol probe
Protocol: In order to examine in vivo properties of LP-1 and monitor active legumain levels non-invasively, we performed imaging experiments using a simple tumor xenograft model (C2C 1 2/Hras 1)(24). […] Mice were injected with the probes via tail vein and fluorescent images were collected over the course of 5 hrs. […] Furthermore, the specific legumain signal was reduced to background levels after 120 min. This is in contrast to the previously reported cathepsin probes which only provide contrast after 8-12 hours and signals are retained beyond 48 hours.
(§3) In vivo/ex vivo imaging and SDS-PAGE analysis of organ lysates was conducted as follows: Tumor bearing mice were prepared by following the previously described method (24). C2C12/Hras1 or MDA-MB 231 MFP cells ([…]) were injected subcutaneously on 4-8 week old male BALB/c nude mice. 14 days after transplantation, each probe (25 nmol in 100˜L of sterile PBS) was injected via the tail vein into tumor-bearing mice. Mice were imaged at various time points after injection using the IVIS 200 imaging system equipped with a Cy5.5 filter. Relative fluorescence of equal-sized areas of tumor and background were measured using Living Image software (Caliper life science). Upon finishing the last time point of imaging, mice were anesthetized and sacrificed by cervical dislocation. Tumors, livers, kidneys and spleens were collected and imaged ex vivo by using the FMT 2500 with a Cy5 filter. After ex vivo imaging, organs were lysed by a dounce homogenizer in muscle lysis buffer (1% Triton X-100, 0.1% SDS, 0.5% sodium deoxycholate, 0.2% sodium azide in PBS, pH 7.2). Total protein extracts (100˜g each) were separated by SDS-PAGE and visualized by scanning the gel with a Typhoon flatbed laser scanner.
Target sequence in this assay (O89017 18-435): as above

legumain [6] = biological target: T1, legumain; assay: Ex vivo imaging of organs and SDS-PAGE analysis of organ lysates; assay type: in vivo, mice
Protocol: as §3
Target sequence in this assay (O89017 18-435): as above

cathepsins [7] = assay: Competitive inhibition of cathepsins in RAW cell lysates, labeled by 125I-DCG04; assay type: biochemical; conditions: competition with 125I-DCG04
Source text: To test this hypothesis, we labeled RAW cell lysates with LP-1 and tLP-1 (FIG. 9).

[8] = read-out: Cathepsin L IC50, at 30 min

labeling of active legumain (legumain [3]): selectively labeled active legumain
Structure (SMILES): CC[N+]1=C(/C=C/C=C/C=C2/N(CCCCCC(=O)NCCCCCC(=O)N3CCC[C@H]3C(=O)N[C@@H](CC(=O)O)C(=O)COC(=O)c3c(C)cccc3C)c3ccc(S(=O)(=O)O)cc3C2(C)C)C(C)(C)c2cc(S(=O)(=O)O)ccc21 [LP-0, reference compound]
cross reactivity towards lysosomal cathepsins (cathepsins [1]): some degree of cross reactivity towards lysosomal cathepsins

accumulation / selective uptake in tumor (legumain [5]): rapidly accumulated in tumor tissues | time after which specific legumain signal was reduced to background levels (legumain [5]): 120 min | time of maximum tumor signal to background ratio (legumain [5]): around 90 min | labeling of active legumain (legumain [3]): selectively labeled active legumain
Structure (SMILES): CCOC(=O)C1OC1C(=O)N(CC(N)=O)NC(=O)C1CCCN1C(=O)CCCCCNC(=O)CCCCCN1C(=CC=CC=CC2=[N+](CC)c3ccc(S(=O)(=O)O)cc3C2(C)C)C(C)(C)c2cc(S(=O)(=O)O)ccc21 (stereo not drawn) [LP-1]
reactivity towards legumain (legumain [4]): no difference in reactivity towards legumain | legumain labeling in tumors, organ distribution and cathepsin cross reactivity (legumain [6]; ex vivo organs and SDS-PAGE of lysates): the most legumain labeling in tumors as well as the highest levels of legumain-specific fluorescent signal | selectivity of legumain labeling in vivo (legumain [6]; organ extracts, SDS-PAGE): remarkably selective toward legumain in vivo and showed virtually no off-target labeling | inhibition of cathepsins (cathepsins [7]): equally poor inhibitors of the cathepsins | labeling of cathepsins (cathepsins [1]): labeled cathepsins only at high concentrations or when legumain activity is suppressed | cross reactivity towards lysosomal cathepsins (cathepsins [1]): some degree of cross reactivity towards lysosomal cathepsins | labeling of active legumain (legumain [3]; listed as LP-I): labeled active legumain more efficiently than LP-0 at low probe concentrations

Further lines, the compound ahead of its results:

Structure (SMILES): CCOC(=O)/C=C/C(=O)N(CC(N)=O)NC(=O)[C@@H]1CCCN1C(=O)CCCCCNC(=O)CCCCCN1/C(=C/C=C/C=C/C2=[N+](CC)c3ccc(S(=O)(=O)O)cc3C2(C)C)C(C)(C)c2cc(S(=O)(=O)O)ccc21 [LP-2]
labeling of cathepsins (cathepsins [1]): did not label any cathepsins at high concentrations

Structure (SMILES): CCOC(=O)/C=C/C(=O)N(CC(N)=O)NC(=O)[C@@H]1CCCN1C(C)=O [LI-2]
selectivity for legumain ([2]; FIG. 18): most selective for legumain | inhibitory effect against other enzymes [2]: no inhibitory effect

Structure (SMILES): CC(=O)N1CCC[C@H]1C(=O)N[C@@H](CC(=O)O)C(=O)COC(=O)c1c(C)cccc1C [LI-0, reference compound]
IC50 (caspase-3): 2.8 µM | IC50 (cathepsin L; [8]): > 1000 µM | IC50 (cathepsin B; read-out: Cathepsin B IC50, at 30 min): > 1000 µM | Legumain kobs/[I] (second-order rate constant) (recombinant legumain): 1586 M⁻¹ s⁻¹ | IC50 (recombinant legumain): 0.704 µM | Legumain kobs/[I] (second-order rate constant) (recombinant legumain; listed as LI-O): 1585 M⁻¹ s⁻¹

Structure (SMILES): CCOC(=O)[C@H]1O[C@@H]1C(=O)N[C@@H](CC(C)C)C(=O)NCCc1ccc(O)cc1 [JPM-OEt, reference compound]
IC50 (cathepsin L): 2.98 µM | IC50 (cathepsin B): 0.78 µM

Structure (SMILES): CCOC(=O)[C@@H]1O[C@H]1C(=O)N(CC(N)=O)NC(=O)C1CCCN1C(C)=O (stereo partly drawn) [LI-1]
IC50 (caspase-3): 890 µM | IC50 (cathepsin L; [8]): 220 µM | inhibitory effect against other enzymes [2]: no inhibitory effect | Legumain kobs/[I] (second-order rate constant) (recombinant legumain): 72350 M⁻¹ s⁻¹ and 72352 M⁻¹ s⁻¹ | potency and rate of legumain inhibition, comparison of inhibitors (recombinant legumain; FIG. 18): greater potency and rate than either Li-2 or LI-0 | IC50 (recombinant legumain): 0.0115 µM

— patent US9345789B2, “Specific inhibitors and active site probes for legumain” (The Board of Trustees of the Leland Stanford Junior …, priority 2009, dated 2016)
